# How the values were obtained:
# [1] = target: T1, ZmSIRK1 (ZmSIRK1^737-1045) (Zea mays, UniProt K7VIQ3); experiment: isothermal titration calorimetry; format: binding
# T1 construct: gene ZEAMMB73_Zm00001d047570; kinase domain Ser737-Ser1045 (full length 1045 aa; KD 762-1040), E. coli BL21(DE3)-R3-pRARE2, pNIC28a-Bsa4, 6xHis tag removed by TEV; forward primer encodes S737-V-V-F-T-A-E (translated); motifs 907DYS909, 933PPE935; model residues 744-972, 977-1000, 1009-1045
# [2] = target: T1, ZmSIRK1 (ZmSIRK1^737-1045); experiment: isothermal titration calorimetry; co-crystal structure; format: binding
# T1 sequence (K7VIQ3 entry or part of it): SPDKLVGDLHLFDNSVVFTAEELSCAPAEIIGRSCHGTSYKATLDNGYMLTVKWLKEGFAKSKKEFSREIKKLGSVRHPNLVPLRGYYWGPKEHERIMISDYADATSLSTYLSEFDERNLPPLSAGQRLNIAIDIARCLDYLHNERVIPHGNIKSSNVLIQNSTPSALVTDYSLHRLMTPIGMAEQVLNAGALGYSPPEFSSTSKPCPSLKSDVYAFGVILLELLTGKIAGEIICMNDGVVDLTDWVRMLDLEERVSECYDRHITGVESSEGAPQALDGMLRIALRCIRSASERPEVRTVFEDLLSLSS
Kd [1] [nM],Compound,Kd [2] [nM]
1990,Nc1ncnc2c1c(-c1cnc3[nH]ccc3c1)nn2C1CCCC1 [PP121],–
1760,CC(C)n1nc(-c2ccc3oc(N)nc3c2)c2c(N)ncnc21 [INK 128],–
–,Nc1ncnc2c1ncn2[C@@H]1O[C@H](COP(=O)(O)OP(=O)(O)NP(=O)(O)O)[C@@H](O)[C@H]1O [AMP-PNP],2800

# Source: article PMC5445127 (Frontiers in Plant Science, 2017)
